Measured values as given in US8420345B2, “Method for identifying at least two groups of microorganisms” (Biomerieux, priority 2006, dated 2013).

What was measured:
[1] = tested on: S. enteritidis serotype Dublin; test: Example 3: colony color, coloration intensity and growth on Columbia agar with esterase substrates; type: cell-based; conditions: X—C8 versus Magenta-C8
Procedure: (§1) The media thus constituted were distributed into Petri dishes.
(§2) Various salmonella serotypes were inoculated, using a 10 μl calibrated loop, onto each medium, using calibrated suspensions of 0.5 McFarland. All the cultures were incubated for 24 h at 37° C.
(§3) The growth and coloration results obtained at 24 h of incubation are given in table 3, in which G signifies growth, C signifies color, I signifies colorless, In signifies coloration intensity, the sign ++ signifies very good growth, the sign + signifies good growth of the strain, the sign +/− signifies moderate growth of the strain and the sign − signifies lack of growth of the strain. 1 corresponds to a weak coloration intensity, 2 corresponds to moderate and 3 corresponds to strong.

[2] = tested on: the other serotypes (salmonella); test: Example 3: esterase substrate preference, conclusion from table 4; type: cell-based; conditions: coloration intensities being stronger for this substrate
Procedure: as §1, §2, §3
As a result of this, a medium containing these two substrates of the same enzymatic activity makes it possible to obtain colored colonies for the various salmonella serotypes, and to separate the Dublin serotype from the other salmonella serotypes and from bacteria not expressing esterase.

| Structure (SMILES) | specificity of hydrolysis by esterase activity [1] | preferential hydrolysis by esterase activity [2] |
| --- | --- | --- |
| CCCCCCCC(=O)Oc1c[nH]c2ccc(Br)c(Cl)c12 [X—C8, 5-Bromo-4-Chloro-3-Indoxyl Octanoate] | hydrolyzes X—C8 more specifically than Magenta-C8 |  |
| CCCCCCCC(=O)Oc1c[nH]c2cc(Cl)c(Br)cc12 [Magenta-C8, 5-Bromo-6-Chloro-3-Indoxyl Octanoate] |  | preferentially hydrolyze Magenta-C8 |
